The source of these data is US7582602B2, “Hirulog-like peptide and gene therapy” (priority 2000, dated 2009).

“Also recorded” adds a separate entry of the source.

Data set [1] can be described thus: Activated partial thromboplastin time (aPTT) in rats. It counts as in vivo. Particulars: for aPTT (second): mean±SD, n=4. As to the method:
Quantitative thrombin time (QTT) and activated partial thromboplastin time (aPTT): Plasma levels of hirulog-1 were estimated using QTT as previously described (Safian R D et al, 1990). Synthesized hirulog-1 (>90% of purity) was used as standard. The levels of aPTT in plasma were analyzed using a MLA 1000C Coagamate XM system in Haematology Laboratory, Health Sciences Centre, Winnipeg.
(§1) The levels of aPTT in plasma were analyzed using MLA 1000C Coagamate XM system in Haematology Laboratory, Health Sciences Centre, Winnipeg. For the evaluation of bleeding time, 1 mm of tail tip was removed using a razor blade. Resultant wound was gently blotted with filter paper immediately after the cut and each 30-second thereafter until bleeding stopped. Periods between cutting and no blood blotted onto filter paper were defined as bleeding time (Ishiwata S et al, 1997, 20).

Data set [2] is described as follows: Induction of antibodies in rabbits. Particulars: rabbit, in vivo. The method, then: Relationship between HLP concentrations and vascular response. The relationship between plasma concentrations and the anti-restenosis effect of HLP is analysed. Polyclonal antibodies against HLP-KLH conjugate were raised in rabbits by the applicants group. The antibodies specifically recognize HLP in plasma proteins using Western blotting analysis. A competitive immunoassay was developed to measure plasma levels of HLP. Relationship between the effect of HLP on restenosis and its blood concentrations is analysed, which helps evaluate the efficacy of HLP and the design of a proper regimen for HLP treatment to prevent restenosis.
Effect of HLP on immune reactions. Since HLP is a peptide, it potentially induces immune reactions. HLP is a weak antigen. […] The possibility of HLP induces immune reactions in rabbits has not been excluded. Blood is withdrawn four weeks or six months after angioplasty and treatment with HLP, its analogues or saline, and determine the levels of serum C-reactive protein (Clinical Chemistry). Antibodies against HLP in blood are detected by immunodiffusion. Allergic reaction to HLP is monitored during and after the treatment.

Data set [3] can be described thus: Bleeding complications and side effects in rabbits. It counts as in vivo. The conditions noted are these: HLP 0.8 mg/kg/h for four hours. The method, then:
(§2) Influence of HLP on coagulation and haemorrhage. The levels of aPTT and microvascular bleeding time is determined in atherosclerotic rabbits receiving HLP, heparin, hirulog-1 or saline. The effects of optimized HLP treatment on coagulation and haemorrhage is also be examined in a group of uninjured rabbits on regular diet (n=10). The levels of aPTT is determined in blood withdrawn at 15 minutes after the start of the infusions using MLA Coagamate XM system in Haematology Laboratory. Microvascular bleeding time is determined by bleeding from a cut on ear at 1 minutes after the initiation of infusion as previously described (Blajchman et al, 1979). Incidence of bleeding complications in rabbits with various treatments is recorded. Autopsy is applied to every animal, including unexpected death, to examine the sign of haemorrhage in various organs and tissues.
Impact of HLP on liver, kidney and myeloid functions. Peripheral blood is withdrawn before sacrifice from ear vein of normal or atherosclerotic rabbits with and without treatments for analysing complete blood counts, serum albumin, alanine transaminase and blood urea nitrogen (analysed in Dept of Clinical Chemistry) to determine the influence of HLP on liver, kidney and myeloid functions. HLP concentrations in blood is analysed to examine the relationship between blood concentrations and possible toxic effects of HLP. […]

Another data set concerns the target T1, α-thrombin (Homo sapiens, UniProt P00734).
T1 construct: using α-thrombin and spectrozyme (American Diagnostica Inc., Greenwich, Conn.) as a substrate for thrombin
The experiment in a line: Inhibition of enzymatic activity of thrombin (spectrozyme substrate). It counts as biochemical. The conditions noted are these: spectrozyme as substrate, relative to hirulog-1. An excerpt:
HLP keeps the sequence of the active sites of hirulog-1. The amino-terminal tail of HLP contains a region which is homology to a distal portion of the extracellular domain of the thrombin receptor. This region of HLP is structurally distinct from hirulog-19-20 (or HLP20-31) which aims the anion binding exosite of thrombin (Carmeliet P et al, 1997). HLP provides double-site of inhibition on the binding of thrombin to the thrombin receptor, which can more effectively reduce the activation of the […] and the cellular effects of thrombin. In addition, the amino-terminal sequence of HLP can affect the interaction of the inhibitor with the active site of thrombin in a manner different from hirulog-1. This structural difference between HLP and hirulog-1 on their amino terminal can partially explain the lower inhibition of HLP on coagulation. The amino terminal of HLP can be slowly cleaved by thrombin after the formation of complex with thrombin as hirulog-1 (Buchanan M R et al, 1999), which prevents the complete consumption of thrombin.

A further data set can be described thus: aPTT in rabbits. Format: in vivo. Particulars: HLP treated rabbits. As to the method:
as §2
Restenosis is responsible for the 30-40% long term failure rate following coronary revascularization. Thrombin inhibitors have been considered as one type of potential drug for the prevention of restenosis. […] The experiment was designed to examine the effect of HLP on restenosis of carotid arteries in atherosclerostic rabbits. Right carotid arteries of male New Zealand rabbits were subjected to air dessication. […]

Data set [4] is described as follows: Tail bleeding time in rats. It counts as in vivo. Particulars: for tail bleeding time during treatment versus control or basal levels: i.v. infusion. The method, then: as §1
The nature of data set [5]: Haemorrhage, toxicity, liver and kidney function in rats. It counts as in vivo.
Another data set relates to baboon aortic SMC. Description: Thrombin-induced 3H-thymidine incorporation assay. Format: cell-based. The conditions noted are these: thrombin 10 U/ml. The method, then: Baboon aortic SMCs (seed cells provided by Dr. A. W. Clowes, University of Washington, Seattle) were grown as previously described (Ishiwata S et al, 1999) and seeded in 12-well plates to sub-confluence. Sub-confluent cells were incubated with serum-free medium for 48 hours. Quiescent SMCs were stimulated with medium containing 1% fetal calf serum and 10 U/ml of thrombin in the absence and presence of HLP for 4 hours. The incubation was continued following the replacement of fresh medium supplemented with 10% serum in the absence of thrombin or its inhibitor for 14 hours. Finally, SMCs were incubated with 0.1 μCi/ml of 3H-thymidine (NEN, Boston, Mass.) in medium containing 10% of serum for 6 hours. At the end of the incubation, the cells were thoroughly washed with PBS then 5% ice-cold trichloroacetic acid, and harvested in 0.25 N NaOH (Safian R D et al, 1990). Radioactivity in aliquots of cell lysate was analyzed in scintillation counter. 3H-Thymidine incorporation was assessed by radioactivity in cell lysates following adjustment with cellular proteins in each well.
(In general: Incorporation of labelled thymidine or its analogues reports DNA synthesis.)

The conditions of data set [6]: human, in vivo; cited from earlier work.
Data set [7] relates to hirulog-like peptide (HLP).
Sequence of hirulog-like peptide (HLP) (chain, as listed by the source): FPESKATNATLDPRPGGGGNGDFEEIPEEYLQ
[8] abbreviates: rats, 6 months after HLP treatment.
The mark [9] stands for this setting: tail, heparin 50 U/kg/h, hirulog-1 1 mg/kg/h, HLP 1.6 mg/kg/h [HLP(1.6)], 10 minutes after initiation of infusion, mean±SD, n=4.
The mark [10] stands for this setting: rats, 6 months after HLP 1.6 mg/kg/h for 4 hours.
The mark [11] stands for this setting: balloon injured rats, heparin 50 U/kg/h, hirulog-1 1 mg/kg/h, HLP 1.6 mg/kg/h [HLP(1.6)], 5 minutes after start of infusion.

For Heparin [reference compound], the “aPTT / coagulation activity during treatment versus control or basal levels” value in data set [1] (rat, in vivo, iv) is given as “greatly increased”.

`CC[C@H](C)[C@H](NC(=O)[C@H](CCC(=O)O)NC(=O)[C@H](CCC(=O)O)NC(=O)[C@H](Cc1ccccc1)NC(=O)[C@H](CC(=O)O)NC(=O)CNC(=O)[C@H](CC(N)=O)NC(=O)CNC(=O)CNC(=O)CNC(=O)CNC(=O)[C@@H]1CCCN1C(=O)[C@H](CCCNC(=N)N)NC(=O)[C@@H]1CCCN1C(=O)[C@H](CC(=O)O)NC(=O)[C@H](CC(C)C)NC(=O)[C@@H](NC(=O)[C@H](C)NC(=O)[C@H](CC(N)=O)NC(=O)[C@@H](NC(=O)[C@H](C)NC(=O)[C@H](CCCCN)NC(=O)[C@H](CO)NC(=O)[C@H](CCC(=O)O)NC(=O)[C@@H]1CCCN1C(=O)[C@@H](N)Cc1ccccc1)[C@@H](C)O)[C@@H](C)O)C(=O)N1CCC[C@H]1C(=O)N[C@@H](CCC(=O)O)C(=O)N[C@@H](CCC(=O)O)C(=O)N[C@@H](Cc1ccc(O)cc1)C(=O)N[C@@H](CC(C)C)C(=O)N[C@@H](CCC(N)=O)C(=O)O` [HLP]: the “antigenicity / induction of detectable antibodies in rabbits” value in data set [2] is “weak antigen”. The “HLP treated rabbits that suffered from bleeding complications” value in data set [3] is recorded as “None”. Further, the “Ki on the enzymatic activity of thrombin, compared with hirulog-1” value on α-thrombin is recorded as “two orders of magnitude greater; also recorded: two orders of magnitude higher”. Further, in the data set “aPTT in rabbits”, the “aPTT in rabbits versus saline controls” value is listed as “did not significantly change; also recorded: not significantly prolonged”. For the same compound, the “tail bleeding time 6 months after treatment versus controls” value in data set [4] (setting [8]) was “No significant change; also recorded: No significant difference”. Further, the “tail bleeding time during treatment versus control or basal levels” value in data set [4] (rats) is “did not cause haemorrhage, the elongation of aPTT or bleeding time; also recorded: not significantly different from vehicle controls; also recorded: did not prolong aPTT or bleeding time”. The “Bleeding time (min)” value in [4] (tail, HLP 3.2 mg/kg/h [HLP(3.2)], 10 minutes after initiation of infusion, mean±SD, n=4) is 16.50 ± 1.58+x min; in data set [4] (setting [9]), 16.37 ± 1.55+x min. Further, the “toxic effect in rats” value in [5] (previous experiments) was “does not cause evident toxic effect”. The “alanine transaminase versus control group” value in data set [5] (setting [10]) is “No significant difference”. Besides, the “blood urea nitrogen versus control group” value in data set [5] (setting [10]) was “No significant difference”. In data set [5] (setting [8]), the “liver and kidney functions” value is “No significant change”. Besides, in data set [5] (rats, heparin 50 U/kg/hours, HLP 1.6-3.2 mg/kg/hours), the “haemorrhage / death from haemorrhage during infusion” value was “did not cause haemorrhage”. Also, the “aPTT (second)” value is 19.80 ± 1.65++xx second in data set [1] (HLP 3.2 mg/kg/h [HLP(3.2)], 5 minutes after start of infusion) and 20.80 ± 3.24++xx second in data set [1] (setting [11]). Further, in [1] (rats, i.v. infusion), the “aPTT / coagulation activity during treatment versus control or basal levels” value was “close to that infused with saline; also recorded: did not cause haemorrhage, the elongation of aPTT; also recorded: not significantly different from vehicle controls; also recorded: did not significantly differ; also recorded: did not prolong aPTT or bleeding time; also recorded: did not significantly alter coagulation activity”.

Turning to `CC[C@H](C)[C@H](NC(=O)[C@H](CCC(=O)O)NC(=O)[C@H](CCC(=O)O)NC(=O)[C@H](Cc1ccccc1)NC(=O)[C@H](CC(=O)O)NC(=O)CNC(=O)[C@H](CC(N)=O)NC(=O)CNC(=O)CNC(=O)CNC(=O)CNC(=O)[C@@H]1CCCN1C(=O)[C@H](CCCNC(=N)N)NC(=O)[C@@H]1CCCN1C(=O)[C@H](N)Cc1ccccc1)C(=O)N1CCC[C@H]1C(=O)N[C@@H](CCC(=O)O)C(=O)N[C@@H](CCC(=O)O)C(=O)N[C@@H](Cc1ccc(O)cc1)C(=O)N[C@@H](CC(C)C)C(=O)O` [Hirulog-1, reference compound], in data set [4] (rats), the “tail bleeding time during treatment versus control or basal levels” value is “significantly prolonged; also recorded: significantly elongated”. For the same compound, the “Bleeding time” value in [4] (setting [9]) is 21.88 ± 1.55 min. The “aPTT raised over basal levels” value in [1] (1 minute after injection of 1 mg/kg, uninjured and balloon injured rats) is listed as 3- to 4 fold. The “aPTT (second)” value in data set [1] (setting [11]) was 52.38 ± 2.84**+ second. The “prolongation of aPTT during infusion” value in [1] (heparin 50 U/kg/h, hirulog-1 1 mg/kg/h, 5 minutes after start of infusion) is recorded as 2- to 3 fold. In addition, the “aPTT / coagulation activity during treatment versus control or basal levels” value in data set [1] (rats, i.v. infusion) was “significantly elongated”. In [1] (single injection of 1 mg/kg), the “time after treatment beyond which aPTT was normalized” value was more than 30 min. Moreover, the “aPTT versus basal levels” value in [1] (within 15 minutes after single injection of 1 mg/kg) is on record as “higher than corresponding basal levels”.

On to Thrombin, for which the “increase of 3H-thymidine incorporation” value in the data set on baboon aortic SMC is 43%.

Take hirudin: in [6], the “frequency of major bleeding” value is given as 6%-7% and the “incidence of major bleeding complications at non-cranial sites” value is given as 7%.

For α-thrombin, the “thrombin-induced 3H-thymidine incorporation in baboon aortic SMC” value in [7] is reported as “Treatment with 20 µM HLP significantly reduced thrombin-induced increase in 3H-thymidine incorporation in SMC (p<0.05) compared to cells treated with thrombin only”.
